In patent US11389423B2, “Pharmaceutical composition, excipient for the composition and use of the composition” (priority 2018, dated 2022):

Assays:
male rabbits [1] = assay: Effects on respiratory system, respiratory rate; assay type: in vivo, New Zealand rabbits; settings: one hour after treatment
Experimental: (§1) Male New Zealand rabbits (n=6 per group) were used for pharmacological safety tests. All tests were performed orally (route recommended for humans) and the investigated parameters were determined after a single administration of CBD-SINT. CBD-SINT doses were determined by allometric extrapolation from the average dose used in human patients (25 mg/kg).
(§2) The dose of 51 mg/kg was used as the intermediate dose, stipulating a higher and a lower dose. Three dose ranges were used according to the Guide for Conducting Non-Clinical Toxicology and Pharmacological Safety Studies Necessary for Drug Development (ANVISA, 2013; Version 1.2). Thus, the doses used were 17, 51 and 170 mg/kg of CBD-SINT.
(§3) After 6-h fasting, three doses of CBD-SINT (17, 51 and 170 mg/kg) were administered to different groups of male rabbits by gavage. Placebo was administered to the control group (1 mL/kg). One hour after treatments, all rabbits remained conscious in the prone position. The respiratory rate was determined using a Kofranyi-Michaelis respirometer (Murphy, 2002). For arterial blood gas analysis, arterial blood samples were taken from the central ear artery and immediately processed. All parameters below were determined on a Cobas b 221 multiparametric blood gas analyzer (Roche Diagnostics, Rotkreuz, Switzerland): pH, PCO2 (mm Hg), PO2 (mm Hg), SO2(%), Htc (%), tHb (g/dL), Na+ (mmol/L), K+ (mmol/L), Ca2+ (mmol/L), Cl− (mmol/L), glucose (mg/dL), lactate (mmol/L), O2Hb (%), HHb (%), P50 (mm Hg), H+ (nmol/L), BE (nmol/L), BEecf (nmol/L), BB (mmol/L), cHCO3 (mmol/L), ctCO2 (B) (mmol/L), ctCO2 (P) (mmol/L) and ctO2 (% by volume).

[2] = system: rats with 6-OHDA microinfusion into the substantia nigra; assay: Morris water maze (cued test/memory version), 6-OHDA model; assay type: in vivo; settings: 6-OHDA rats, 36 or 120 mg/kg orally, day 18 to day 28
Experimental: For the experiments with 6-OHDA, the animals were divided into the following groups: • 6-OHDA+placebo • 6-OHDA+CBD-SINT 12 mg/kg • 6-OHDA+CBD-SINT 36 mg/kg • 6-OHDA+CBD-SINT 120 mg/kg • Sham+placebo • Naive
After the recovery period, CBD-SINT and placebo were administered orally (gavage) for 28 days. Locomotor activity tests were performed only at the end of treatments (day 28). The memory tests (Morris water maze) were performed daily from day 18 to day 28 (FIG. 14).
The rats were submitted to stereotactic surgery (stereotactic—David Kopf, model 957L) and received bilateral microinfusion of MPTP or 6-OHDA (different groups of rats) directly into the substantia nigra. For surgery, the following stereotaxic coordinates were used: anteroposterior: 5.0 mm from the bregma; mediolateral: ±2.1 mm from the midline and dorsoventral: −7.7 mm from the cranial vault (Paxinos and Watson, 1986). Then, 100 μg MPTP (diluted in 1 μL saline, with a flow of 0.33 μL/min) or 8 μg 6-OHDA (diluted in 2 μL saline with 0.2 μg/μL ascorbic acid, with a flow rate of 0.33 μL/min) were injected. […]
The animals were subjected to the same procedure until the four starting points are completed. […] The latency (time it takes the animals to find the platform) and the speed of the animals were quantified by the 2020 Plus Tracking System software.

mice (male and female) = assay: Single dose (acute) toxicity study in mice; assay type: in vivo
Experimental: The single-dose (acute) toxicity study was carried out with different groups of rats and mice (male and female) and according to the procedures recommended by OECD (2001) and ANVISA (2013).
After a 6 h-fasting period, the animals' body weight was determined, and the dose of the synthetic CBD was calculated. Two single doses (1000 and 2000 mg/kg) of synthetic CBD were administered orally (with the aid of a gavage probe) and intraperitoneally in different groups of rats and mice (male and female). Other different groups of rodents were treated with placebo and were considered as control groups.
The animals were carefully observed for any toxicity signs within the first eight hours after treatment, and daily for a period of 14 days. On the 15th day all animals were euthanized, and the respective anatomopathological investigations were performed on the 15th day after the treatments.

male rabbits [3] = assay: Arterial blood gas analysis; assay type: in vivo, New Zealand rabbits; settings: male rabbits, 17, 51 and 170 mg/kg by gavage
Experimental: as §1, §2
as §3, with “Placebo was administered to the control group (1 mL/kg). One hour after treatments, all rabbits remained conscious in the prone position.” left out, “For arterial blood gas analysis, arterial blood samples were taken from the central ear artery and immediately processed.” left out

[4] = 1000 mg/kg and 2000 mg/kg intraperitoneally, single dose

SMILES: C=C(C)[C@@H]1CCC(C)=C[C@H]1c1c(O)cc(CCCCC)cc1O [CBD-SINT, Cannabidiol]
- respiratory rate (male rabbits [1]; 17 mg/kg by gavage): 55±6.48 bpm
- respiratory rate (male rabbits [1]; 51 mg/kg by gavage): 57±5.43 bpm
- respiratory rate (male rabbits [1]; 170 mg/kg by gavage): 56±5.66 bpm
- latency time to find the platform (memory deficit) [2]: did not show this deficit
- abdominal contortions during the first 8 hours (mice (male and female); [4]): occasional abdominal contortions
- activity during the first 8 hours of observation (mice (male and female); [4]): significant decrease in its activity
- daily feed and water consumption compared to placebo (mice (male and female); 1000 and 2000 mg/kg, oral or intraperitoneal): no change
- final body weight and body weight gains vs placebo (mice (male and female); 1000 and 2000 mg/kg, oral or intraperitoneal, 14 days): similar
- appearance and general behavior pattern until the end of the 14-days observation (mice (male and female); 1000 and 2000 mg/kg, oral or intraperitoneal, after the first 8 h): no significant changes
- absolute (g) or relative (%) weight of all organs vs placebo (mice (male and female); after 14 days): no significant differences
- histopathological analyzes (mice (male and female); day 15): no significant changes
- macroscopic examination of vital organs (mice (male and female); day 15): did not disclose any abnormalities
- deaths (LD50 not set forth) (mice (male and female); doses up to 2000 mg/kg orally or intraperitoneally, 14 days): no deaths were observed
- arterial blood gases, electrolytes and metabolites (pH, PCO2, PO2, SO2, Htc, tHb, Na+, K+, Ca2+, Cl-, glucose, lactate, O2Hb, HHb, P50, H+, BE, BEecf, BB, cHCO3, ctCO2, ctO2) vs placebo (male rabbits [3]): none of the CBD-SINT doses changed
